Test results as given in patent US20190002915A1, “COMPOSITIONS AND METHODS FOR REGULATABLE ANTIBODY EXPRESSION” (The Trustees of the University of Pennsylvania, priority 2015, published 2019).

Tests used:
[1] = IM AAV8 Z12i-immunoadhesin plus TF vectors in RAG KO mice, AP22594 induction, protein A ELISA; format: in vivo; settings: post AAV8 administration
Experimental: RAG KO mice were purchased from Jackson labs. Z12i-2014A and TF plasmids were packaged into AAV8 vectors using triple transfection method. Vectors were titered using qPCR. […] First induction with AP22594 was carried out on day 13 after AAV8 administration. AP22594 was administered IP at a dose of 1 mg/kg. On day 21 post AAV8 administration, orbital bleeds were collected and the level of circulating 2011A antibody was measured by protein A ELISA. The data is presented on FIG. 8.

[2] = test system: Z12i promoter ffLuc reporter in HEK293 cells; assay: ffLuc reporter induction under Z12i promoter in transfected HEK293 cells; format: cell-based; settings: TF cis-plasmids plus Z12i-ffLuc reporter, rapamycin versus rapalog, all TF systems tested
Experimental: Cis plasmid constructs having the following elements, from 5′ to 3′ were constructed: promoter, nuclear localization signal (NLS), FRAPL (lipid kinase homolog having rapamycin binding domain), p65 of human NF-κB (transcriptional activation domain), IRES, zinc finger (DNA binding domain), 2 or 3 copies of FK506 binding protein as shown below, and a poly A.
These cis plasmids were tested for in HEK293 cells for the ability to induce expression of ffLuc reporter gene under the control of Z12i promoter, consisting of 12 ZFHD binding sites followed by minimal IL2 promoter. Briefly, HEK293 cells were transfected with cis-plasmids along with the reporter constructs. 24-72 hours post transfection, cells were treated with various concentrations of either rapamycin (sirolimus) or rapalog AP22594 as indicated in FIG. 5. Expression of ffLuc was assessed using dual luciferase detection kit from Promega according to manufacturer's instructions. […] Antibodies normally are secreted into supernatant buy the transfected cells. In this experiment, transfection was performed using lipofectamine according to the manufacturer's instructions, and induction was carried out the next day after transfection using indicated amounts of rapalog. At 72 hours post transfection, supernatants were harvested and expression of anti-SIV antibody was assessed using antigen specific ELISA or protein A ELISA. […]

nasal airways = assay: Intranasal AAV9 regulatable ffLuc expression in mice after rapamycin induction (IVIS imaging); format: in vivo, C57BL/6 mice
Experimental: AAV2/9.Z12i.ffLuc and AAV2/9.CMV.Tf were used in this example. These vectors were prepared as described in S J Chen et al, Hu Gene Therapy, 24: 270-278 (August 2013). AAV2/9.Z12i.ffLuc contains:
C57BL/6 mice (6 to 8 weeks of age) were purchased from Charles River Laboratories (Wilmington, Mass.) and kept under pathogen-free conditions at the Animal Facility of the Translational Research Laboratories. Mice were anesthetized using an intraperitoneal (IP) injection of ketamine/xylazine. For vector administrations, mice were inoculated intranasally (IN) with […] in the right and left nostril for a total dose of 10^11 genome copies (GC) in 25 μL. All animal procedures were approved by the Institutional Animal Care and Use Committees of the University of Pennsylvania.
Topical (IN) application: mice were anaesthetized with ketamine/xylazine and 5 mins later 5 μL of rapamycin solution for a total dose of 10 mg/kg was delivered to the right and left nostril IN. Systemic (IP) application: mice were physically restrained and injected IP with 50 μL of a 1 mg/mL rapamycin solution.
Mice were anaesthetized with ketamine/xylazine and 5 mins later 10 μL of 15 mg/ml D-luciferin (Caliper, USA) was delivered to the right and left nostril IN. Five mins later mice were imaged using the IVIS® Xenogen imaging system [Perkin-Elmer]. Quantitation of signal was calculated using the Living Image® 3.0 Software.
The level of gene expression achieved in the nasal airways following rapamycin induction was examined. Briefly, C57B1/6 mice (n=5/group) were dosed with 10^11 GC of both AAV2/9.Z12i.ffLuc and AAV2/9.CMV.Tf in a volume of 25 μL (12.5 μL per nostril). As negative controls, groups of mice were dosed with a) AAV2/9.Z12i.ffLuc alone, b) AAV2/9.CMV.Tf alone and c) PBS mice. As a positive control for the maximal expression of ffLuc, mice (n=5) were injected with AAV2/9.CMV.ffluc. To maximize the safety of the inducible vector system we opted to restrict expression to the nasal epithelium by delivering rapamycin topically (directly to the nose) or systemically (IP).

NHP eyes = assay: Subretinal AAV8 regulatable antibody expression in NHP eyes (ELISA); format: in vivo, Macaca mulatta (rhesus monkeys); settings: rapamycin IV
Experimental: For this experiment a 3 year old male Macaca mulatta (rhesus monkeys) was purchased from Covance Research Products, Inc.
For subretinal (SR) vector injections, a needle was inserted through a sclerotomy 2 mm posterior to the limbus at the 2 or 10 o'clock position. It was then advanced through the vitreous to penetrate the retina in the posterior pole. Under microscopic control, up to 100 μL of anterior chamber fluid was removed and 150 μL of viral vector solution diluted in phosphate buffered saline (PBS) was injected into the subretinal space, thereby raising a dome-shaped retinal detachment (bleb). The detachment covered a small fraction (approximately ⅛th) of the area of the retina in the macula. The NHP received AAV8 vectors injected subretinally into the left (OS) and right (OD) eyes. The two vectors that were injected were: AAV2/8.CMV.TF1Nc (alternate name for AAV2/8.CMV.TF) and AAV2/8.Z12i.AbH.FF2A.AbL.BGH. The vectors were mixed at 1:1 ratio at 10^11 GC and delivered SR in a total volume of 150 μL.
Macaques were induced at various times following the SR vector injection. Rapamycin (2 mg/kg) was delivered IV in a solution of 1.2% Tween 80, 27.1% Polyethylene Glycol, 71.7% Nuclease Free Water. At designated times post vector delivery, a tap was performed on the OD eye (baseline) and the NHP then injected IV with 2 mg/kg rapamycin. […]

[3] = stated as consistent with the time frame of decline; cited from earlier work
[4] = three separate IN rapamycin inductions over three months

COC1CC2CCC(C)C(O)(O2)C(=O)C(=O)N2CCCCC2C(=O)OC(C(C)CC2CCC(O)C(OC)C2)CC(=O)C(C)C=C(C)C(O)C(OC)C(=O)C(C)CC(C)C=CC=CC=C1C (stereo not drawn) [AP22594, 28-epi-rapamycin]
day induced expression returned to barely detectable [1]: 49 days
day induced expression started to decline [1]: 35 days
day of peak induced expression ([1]; data not shown): 28 days
induction of transgene (ffLuc) expression [2]: comparable levels of induction of transgene expression

CO[C@H]1C[C@@H]2CC[C@@H](C)[C@@](O)(O2)C(=O)C(=O)N2CCCC[C@H]2C(=O)O[C@H]([C@H](C)C[C@@H]2CC[C@@H](O)[C@H](OC)C2)CC(=O)[C@H](C)/C=C(\C)[C@@H](O)[C@@H](OC)C(=O)[C@H](C)C[C@H](C)/C=C/C=C/C=C/1C [rapamycin]
time for ffLuc expression to reach background levels (nasal airways; IN or IP rapamycin induction): ≤ 7 days
time until which ffLuc expression remained stable (nasal airways; IN or IP rapamycin induction): 48 h
time to maximal ffLuc expression after induction (nasal airways; IN or IP rapamycin induction, AAV2/9.Z12i.ffLuc plus AAV2/9.CMV.Tf IN): ≤ 24 h
signs of behavioral distress (nasal airways; rapamycin delivered to the nose or systemically): did not exhibit any signs of behavioral distress
time at which expression began to decline (nasal airways; [4]): 72 h
time to maximal induction (nasal airways; [4]): ≤ 24 h
time to which induction was stable (nasal airways; [4]): 48 h
time to wane to background undetectable levels (NHP eyes): ≤ 3 months
peak of antibody expression post induction (NHP eyes; several inductions over 4 years): 14 days

B1: 2011A antibody: immunoadhesin expressed from the Z12i construct in AAV8 (protein)
chain: EVQLLESGPGLVKPSETLSLTCAVSGLSISSDFSWAWIRQTPGKALEYVGYIRGNTGDTYYNPSLKSRLTISKDTSKNQIYLNLSSVTAGDAAVYYCARDRVCDDDYGYYYTEVCFGLDSWGQGIVVTVSSGGGGSGGGGSGGGGSAELVMTQSPLSLSVAPGQTASISCRSSQSLDYANGNTYLSWFHQRPGQPPRRLIYQISNRDSGVPDRFSGSGAGTEFTLRISRMESDDVGIYYCGQGTTFPRTFGQGTKVEIKTCGGGSKPPTCPPCTSPELLGGPSVFLFPPKPKDTLMISRTPEVTCVVVDVSQEDPDVKFNWYVNGAEVHHAQTKPRETQYNSTYRVVSVLTVTHQDWLNGKEYTCKVSNKALPAPIQKTISKDKGQPREPQVYTLPPSREELTKNQVSLTCLVKGFYPSDIVVEWESSGQPENTYKTTPPVLDSDGSYFLYSKLTVDKSRWQQGNVFSCSVMHEALHNHYTQKSLSLSPGK
antibody half-life [3]: 1-2 weeks
